In experiment [1] the test system is 4T1 tumors. The experiment is described as follows: 4T1 mouse triple negative breast cancer model in Balb/C mice. The format is in vivo. The method, then:
6-8 week-old Balb/C mice were injected with 0.1 million of 4T1 cells in the mammary fat pad. On day 5, mice were randomized to 4 treatment groups, PBS, 6D9 (10 mg/kg), Gemcitabine (75 mg/kg), and 6D9 (10 mg/kg) plus gemcitabine (75 mg/kg). All treatments were by intraperitoneal injection and mice received a total of 5 treatments on days 5, 8, 12, 14, and 16.
The tumors and lymph nodes were harvested from these mice, and cells were dissociated and subjected to immune cell profiling by flow cytometry analysis.

Experiment [2] deals with human monocytes. The experiment is described as follows: Cytokine treatment of monocytes, expression of VTCN1, PD-L1, CD80 by flow cytometry. The format is cell-based. Conditions: 24, 48, or 73 hours. The method, then: VTCN1 is expressed in monocytes and macrophages in a tumor microenviroment, the expression induced by cytokines in tumor microenviroment. VTCN1 positive macrophages inhibit T cell activation. Monocytes from healthy donors were treated with IFNγ and IL-6 to assess VTCN1 expression. Monocytes were enriched from fresh PBMC from healthy donor using a monocyte enrichment kit from Stemcell Technologies, and the purity of the obtained monocytes is greater than 95%. Monocytes were cultured in 24 well plate with different concentration of INFγ or LI-6 for 24, 48, or 73 hours, expression of VTCN1, PD-L1, and CD80 was assessed by flow cytometry. […] CD80 was expressed at low level in monocytes, and is not very responsive to cytokine treatment.

Regarding `Nc1ccn([C@@H]2O[C@H](CO)[C@@H](O)C2(F)F)c(=O)n1` [Gemcitabine, gemcitabine], the 4T1 tumor growth entry in experiment [1] (6D9 10 mg/kg, gemcitabine 75 mg/kg, i.p., days 5, 8, 12, 14, 16) is on record as “totally inhibited tumor growth at the early stage of the study with tumor regrowth after 30 days”. Moreover, the “tumor-free mice (complete response; CR) at end of study on day 65” value in experiment [1] (mouse, in vivo) is “none of the mice in the gemcitabine alone group were tumor-free”.
Turning to “IL6: cytokine added to human monocyte cultures”, the “VTCN1 and PD-L1 expression in monocytes” value in experiment [2] was “VTCN1 and PD-L1 expression was induced”.

Source of the values: patent US12427163B2, “Anti-VTCN1 antibodies and antibody drug conjugates” (Bluefin BioMedicine, Inc., priority 2017, dated 2025).
